From PubChem BioAssay (NCI)
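Values below derive from 48-hour exposures of cells grown in 96-well plates, with endpoints linearly interpolated between the two concentrations bracketing the appropriate inhibition level. TGI: total growth inhibition.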

Assays:
Experiment in all cases: NCI-60 cell line screen, 48 h
DMS 273 small cell lung = test system: DMS 273 small cell lung
HCT-15 colon = test system: HCT-15 colon
COLO 205 colon = test system: COLO 205 colon
HOP-62 NSCLC = test system: HOP-62 NSCLC
ACHN renal = test system: ACHN renal
KM20L2 colon = test system: KM20L2 colon
OVCAR-4 ovarian = test system: OVCAR-4 ovarian
M19-MEL melanoma = test system: M19-MEL melanoma
KM12 colon = test system: KM12 colon
SF-268 CNS = test system: SF-268 CNS
M14 melanoma = test system: M14 melanoma
MOLT-4 leukemia = test system: MOLT-4 leukemia
786-0 renal = test system: 786-0 renal
SK-OV-3 ovarian = test system: SK-OV-3 ovarian
HOP-92 NSCLC = test system: HOP-92 NSCLC
NCI-H460 lung = test system: NCI-H460 lung
SNB-19 CNS = test system: SNB-19 CNS
SN12C renal = test system: SN12C renal
HT29 colon = test system: HT29 colon
RXF 393 renal = test system: RXF 393 renal
CCRF-CEM leukemia = test system: CCRF-CEM leukemia
IGROV1 ovarian = test system: IGROV1 ovarian
HL-60(TB) leukemia = test system: HL-60(TB) leukemia
NCI-H226 lung = test system: NCI-H226 lung
K-562 leukemia = test system: K-562 leukemia
SF-539 CNS = test system: SF-539 CNS
U251 CNS = test system: U251 CNS
CAKI-1 renal = test system: CAKI-1 renal
OVCAR-5 ovarian = test system: OVCAR-5 ovarian
SK-MEL-2 melanoma = test system: SK-MEL-2 melanoma
DMS 114 small cell lung = test system: DMS 114 small cell lung
UACC-257 melanoma = test system: UACC-257 melanoma
OVCAR-3 ovarian = test system: OVCAR-3 ovarian
SW-620 colon = test system: SW-620 colon
SNB-75 CNS = test system: SNB-75 CNS
SK-MEL-5 melanoma = test system: SK-MEL-5 melanoma
RXF-631 renal = test system: RXF-631 renal
NCI-H23 lung = test system: NCI-H23 lung
MALME-3M melanoma = test system: MALME-3M melanoma
DLD-1 colon = test system: DLD-1 colon
A549 NSCLC = test system: A549 NSCLC
UACC-62 melanoma = test system: UACC-62 melanoma
UO-31 renal = test system: UO-31 renal
LXFL 529 NSCLC = test system: LXFL 529 NSCLC
SNB-78 CNS = test system: SNB-78 CNS
SF-295 CNS = test system: SF-295 CNS
OVCAR-8 ovarian = test system: OVCAR-8 ovarian
RPMI-8226 leukemia = test system: RPMI-8226 leukemia
SK-MEL-28 melanoma = test system: SK-MEL-28 melanoma
LOX IMVI melanoma = test system: LOX IMVI melanoma
HCT-116 colon = test system: HCT-116 colon
A498 renal = test system: A498 renal
HCC-2998 colon = test system: HCC-2998 colon
TK-10 renal = test system: TK-10 renal
NCI-H522 lung = test system: NCI-H522 lung
EKVX NSCLC = test system: EKVX NSCLC
HOP-18 NSCLC = test system: HOP-18 NSCLC

Measured: TGI

S=c1nc(COc2ccc(Cl)cc2)[nH][nH]1
not listed: EKVX NSCLC | HOP-18 NSCLC
> 100 µM: all other assays above

CCC1(CN(C)C)CC/C(=C\c2ccc(OC)cc2)C1=O (stereo unspecified)
not listed: SK-OV-3 ovarian | HL-60(TB) leukemia
> 100 µM: all other assays above

NC(CCCNCc1ccccc1)C(=O)O (stereo unspecified)
not listed: RXF 393 renal | U251 CNS | OVCAR-5 ovarian | SNB-78 CNS | SF-295 CNS | HCC-2998 colon
> 100 µM: all other assays above
